Test results as given in article PMC10041525, “New Dual Inhibitors of Bacterial Topoisomerases with Broad-Spectrum Antibacterial Activity and In Vivo Efficacy against Vancomycin-Intermediate Staphylococcus aureus” (Journal of Medicinal Chemistry, 2023).
In brackets after ≈: the same amount, converted by molar mass. Several values for one entry are separate records, joined by “and”; a condition that tells them apart may be missing. Equal entries are not always repeated. Where two headings read alike, the source gives them in different places.

Assays:
S. pneumoniae (n = 12) = test: MIC broth microdilution at IHMA Europe; type: cell-based; details: for MIC: Streptococcus pneumoniae
E. faecalis ATCC 29212 [1] = tested on: E. faecalis ATCC 29212; design: method as in earlier work; details: QC range for E. faecalis ATCC 29212, ref CLSI; cited from earlier work
E. faecium (n = 13) = test: MIC broth microdilution at IHMA Europe; type: cell-based; details: Enterococcus faecium
S. pneumoniae ATCC 49619 [2] = test: IHMA QC MIC; type: cell-based
Excerpt: (§1) Supplement jm2c01905_si_004.xlsx, sheet "QC" | column: MIC [µg/mL]

H. influenzae ATCC 49247 = test: IHMA QC MIC; type: cell-based
Excerpt: as §1

H. influenzae ATCC 49766 = test: IHMA QC MIC; type: cell-based
Excerpt: as §1

E. faecalis ATCC 29212 [3] = test: IHMA QC MIC; type: cell-based
Excerpt: as §1

E. coli ATCC 25922 = test: IHMA QC MIC; type: cell-based
[4] = tested on: Haemophilus influenzae (n = 14); test: MIC broth microdilution at IHMA Europe; type: cell-based, H. influenzae; details: for MIC: Haemophilus influenzae
S. pneumoniae ATCC 49619 [5] = tested on: S. pneumoniae ATCC 49619; design: method as in earlier work; details: QC range for S. pneumoniae ATCC 49619, ref CLSI; cited from earlier work
P. aeruginosa ATCC 27853 = test: IHMA QC MIC; type: cell-based
A. baumannii DNA gyrase = A. baumannii DNA gyrase (Acinetobacter baumannii, UniProt A0ABX6CA01); test: gel-based supercoiling assay; type: biochemical
Method: In all experiments, the activity of the
enzymes was determined prior to the testing of the compound and 1 unit (U) was defined as the
amount of enzyme required to just fully supercoil or decatenate the substrate. This amount of
enzyme was initially used in determination of control inhibitor activity. These experiments were
performed in duplicate. […] The final DMSO
concentration was 1% for all assays. All measurements were performed in quadruplicates. The
condition for each reaction were as follows:
− S. aureus gyrase supercoiling assay
1 U of S. aureus gyrase was incubated with 0.5 µg of relaxed pBR322 DNA in a 30 µL reaction at
magnesium acetate, 10 mM DTT, 2 mM ATP, 500 mM potassium glutamate and 0.05 mg/mL
− S. aureus topo IV decatenation assay
1 U of S. aureus topo IV was incubated with 20 µg kDNA in a 30 µL reaction at 37 °C for 30
mM ATP, 350 mM potassium glutamate and 0.05 mg/mL albumin.
− A. baumannii gyrase supercoiling assay
1 U of A. baumannii gyrase was incubated with 0.5 µg of relaxed pBR322 DNA in a 30 µL reaction
blue), before being loaded on a 1.0% TAE gel run at 80V for 2 hours. Bands were visualised by
ethidium bromide staining for 20 minutes and destaining for 20 minutes. Gels were scanned using
documentation equipment (GeneGenius, Syngene, Cambridge, UK) and % inhibition levels were
measured by determining the relative fluorescence of the supercoiled band using gel scanning
software. […]

[6] = tested on: S. aureus (VISA) ATCC 700699; test: MIC broth microdilution (CLSI); type: cell-based; details: Staphylococcus aureus; read-out: MIC
How it was run: (§2)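 Compounds were serially diluted in cation-adjusted Mueller Hinton broth 2 according to CLSI guidance, and each well received 5 × 10^4 cells. After 18 h at 37 °C and 150 rpm, absorbance at 600 nm defined the MIC as a triplicate-mean increment below 1.5-fold background.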

[7] = tested on: S. aureus (MRSA) ATCC 43300; test: MIC broth microdilution (CLSI); type: cell-based; details: Staphylococcus aureus
How it was run: as §2

A. baumannii DNA gyrase, sequence (A0ABX6CA01 1-822): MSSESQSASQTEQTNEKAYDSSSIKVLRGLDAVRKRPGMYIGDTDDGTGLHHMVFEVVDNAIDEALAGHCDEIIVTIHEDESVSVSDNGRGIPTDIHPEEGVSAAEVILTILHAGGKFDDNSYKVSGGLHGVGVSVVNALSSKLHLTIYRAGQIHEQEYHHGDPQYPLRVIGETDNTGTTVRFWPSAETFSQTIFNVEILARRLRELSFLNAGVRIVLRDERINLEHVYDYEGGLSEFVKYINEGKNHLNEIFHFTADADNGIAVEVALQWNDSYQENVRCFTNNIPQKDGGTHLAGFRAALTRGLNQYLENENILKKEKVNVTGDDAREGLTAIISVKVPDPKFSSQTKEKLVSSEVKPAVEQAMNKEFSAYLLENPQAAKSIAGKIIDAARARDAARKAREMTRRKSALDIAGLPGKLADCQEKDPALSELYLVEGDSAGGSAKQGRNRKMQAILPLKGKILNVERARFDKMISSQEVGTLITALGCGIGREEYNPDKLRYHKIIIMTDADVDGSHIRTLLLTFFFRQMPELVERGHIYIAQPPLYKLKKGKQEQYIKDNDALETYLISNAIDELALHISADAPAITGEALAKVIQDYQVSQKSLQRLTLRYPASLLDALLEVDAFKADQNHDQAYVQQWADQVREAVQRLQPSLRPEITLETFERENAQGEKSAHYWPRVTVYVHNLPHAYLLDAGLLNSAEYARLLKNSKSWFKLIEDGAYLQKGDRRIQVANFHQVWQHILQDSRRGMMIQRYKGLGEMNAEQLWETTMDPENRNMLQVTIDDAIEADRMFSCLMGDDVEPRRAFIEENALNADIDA
A. baumannii DNA gyrase, sequence (A0ABX6CII0 1-904 partner): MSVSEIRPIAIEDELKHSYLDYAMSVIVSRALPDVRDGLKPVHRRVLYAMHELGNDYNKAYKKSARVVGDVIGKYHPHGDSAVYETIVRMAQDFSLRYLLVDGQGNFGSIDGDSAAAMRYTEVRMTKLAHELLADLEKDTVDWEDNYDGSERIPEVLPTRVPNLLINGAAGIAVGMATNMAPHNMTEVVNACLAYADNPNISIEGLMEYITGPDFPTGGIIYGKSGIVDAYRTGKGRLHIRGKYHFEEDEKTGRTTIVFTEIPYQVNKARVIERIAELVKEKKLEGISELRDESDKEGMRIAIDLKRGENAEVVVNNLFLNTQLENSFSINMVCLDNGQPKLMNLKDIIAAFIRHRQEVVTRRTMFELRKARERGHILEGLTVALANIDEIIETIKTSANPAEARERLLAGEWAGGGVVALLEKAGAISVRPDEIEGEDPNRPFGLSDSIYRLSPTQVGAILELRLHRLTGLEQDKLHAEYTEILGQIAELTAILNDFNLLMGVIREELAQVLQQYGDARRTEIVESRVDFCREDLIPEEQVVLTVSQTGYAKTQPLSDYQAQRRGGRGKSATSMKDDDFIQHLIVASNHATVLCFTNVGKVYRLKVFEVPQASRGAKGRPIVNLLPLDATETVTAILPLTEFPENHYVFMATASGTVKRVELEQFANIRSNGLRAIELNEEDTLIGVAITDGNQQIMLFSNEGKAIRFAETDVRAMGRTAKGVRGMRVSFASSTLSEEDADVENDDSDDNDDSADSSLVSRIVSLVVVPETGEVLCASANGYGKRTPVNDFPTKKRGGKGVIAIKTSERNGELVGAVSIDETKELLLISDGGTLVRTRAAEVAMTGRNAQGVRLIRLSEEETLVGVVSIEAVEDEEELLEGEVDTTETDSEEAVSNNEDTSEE

CN[C@H](CC(C)C)C(=O)N[C@H]1C(=O)N[C@@H](CC(N)=O)C(=O)N[C@H]2C(=O)N[C@H]3C(=O)N[C@H](C(=O)N[C@H](C(=O)O)c4cc(O)cc(O)c4-c4cc3ccc4O)[C@H](O)c3ccc(c(Cl)c3)Oc3cc2cc(c3O[C@@H]2O[C@H](CO)[C@@H](O)[C@H](O)[C@H]2O[C@H]2C[C@](C)(N)[C@H](O)[C@H](C)O2)Oc2ccc(cc2Cl)[C@H]1O [Vancomycin, vancomycin]
No. of isolates at MIC (S. pneumoniae (n = 12)): 5 and 6 | Cumulative % at MIC (S. pneumoniae (n = 12); MIC 1 µg/mL): 100.0% | No. of isolates at MIC (S. pneumoniae (n = 12); MIC 1 µg/mL): 1 | MIC (S. pneumoniae (n = 12); S. pneumoniae IHMA N° 1775387): 0.25 µg/mL (≈ 0.173 µM) | MIC (S. pneumoniae (n = 12); S. pneumoniae IHMA N° 1776057): 0.25 µg/mL (≈ 0.173 µM) | MIC (S. pneumoniae (n = 12); S. pneumoniae IHMA N° 1785617): 0.12 µg/mL (≈ 0.0828 µM) | MIC (S. pneumoniae (n = 12); S. pneumoniae IHMA N° 1800765): 0.12 µg/mL (≈ 0.0828 µM) | MIC (S. pneumoniae (n = 12); S. pneumoniae IHMA N° 1811259): 0.12 µg/mL (≈ 0.0828 µM) | MIC (S. pneumoniae (n = 12); S. pneumoniae IHMA N° 1831562): 0.25 µg/mL (≈ 0.173 µM) | MIC (S. pneumoniae (n = 12); S. pneumoniae IHMA N° 1902609): 0.25 µg/mL (≈ 0.173 µM) | MIC (S. pneumoniae (n = 12); S. pneumoniae IHMA N° 1979675): 0.25 µg/mL (≈ 0.173 µM) | MIC (S. pneumoniae (n = 12); S. pneumoniae IHMA N° 1991963): 1 µg/mL (≈ 0.69 µM) | MIC (S. pneumoniae (n = 12); S. pneumoniae IHMA N° 2057487): 0.12 µg/mL (≈ 0.0828 µM) | MIC (S. pneumoniae (n = 12); S. pneumoniae IHMA N° 2073087): 0.25 µg/mL (≈ 0.173 µM) | MIC (S. pneumoniae (n = 12); S. pneumoniae IHMA N° 2117109): 0.12 µg/mL (≈ 0.0828 µM) | MIC, CLSI Range (E. faecalis ATCC 29212 [1]): 1 to 4 µg/mL | MIC (E. faecium (n = 13); E. faecium IHMA N° 1764866): 16 µg/mL (≈ 11 µM) | MIC (E. faecium (n = 13); E. faecium IHMA N° 1765436): 16 µg/mL (≈ 11 µM) | MIC (E. faecium (n = 13); E. faecium IHMA N° 1765746): > 32 µg/mL | MIC (E. faecium (n = 13); E. faecium IHMA N° 1893573): 32 µg/mL (≈ 22.1 µM) | MIC (E. faecium (n = 13); E. faecium IHMA N° 1893846): > 32 µg/mL | MIC (E. faecium (n = 13); E. faecium IHMA N° 1893942): 32 µg/mL (≈ 22.1 µM) | MIC (E. faecium (n = 13); E. faecium IHMA N° 1894055): > 32 µg/mL | MIC (E. faecium (n = 13); E. faecium IHMA N° 1897027): > 32 µg/mL | MIC (E. faecium (n = 13); E. faecium IHMA N° 1897101): > 32 µg/mL | MIC (E. faecium (n = 13); E. faecium IHMA N° 1904592): > 32 µg/mL | MIC (E. faecium (n = 13); E. faecium IHMA N° 2075051): 16 µg/mL (≈ 11 µM) | MIC (E. faecium (n = 13); E. faecium IHMA N° 2077718): > 32 µg/mL | MIC (E. faecium (n = 13); E. faecium IHMA N° 2083787): > 32 µg/mL | MIC (S. pneumoniae ATCC 49619 [2]; QC strain S. pneumoniae ATCC 49619, test date 2021-11-26): 0.12 µg/mL (≈ 0.0828 µM) | MIC (S. pneumoniae ATCC 49619 [2]; Streptococcus pneumoniae, ATCC49619): 0.12 µg/mL (≈ 0.0828 µM) | MIC (H. influenzae ATCC 49247; Haemophilus influenzae, ATCC49247): > 32 µg/mL | MIC (H. influenzae ATCC 49247; QC strain H. influenzae ATCC 49247, test date 2021-11-26): >32 µg/mL | MIC (H. influenzae ATCC 49766; Haemophilus influenzae, ATCC49766): > 32 µg/mL | MIC (H. influenzae ATCC 49766; QC strain H. influenzae ATCC 49766, test date 2021-11-26): >32 µg/mL | MIC (E. faecalis ATCC 29212 [3]; Enterococcus faecalis, ATCC29212): 2 µg/mL (≈ 1.38 µM) | MIC (E. faecalis ATCC 29212 [3]; QC strain E. faecalis ATCC 29212, test date 2021-11-26): 2 µg/mL (≈ 1.38 µM) | MIC (E. coli ATCC 25922; Escherichia coli, ATCC25922): > 32 µg/mL | MIC (E. coli ATCC 25922; QC strain E. coli ATCC 25922, test date 2021-11-26): >32 µg/mL | No. of isolates at MIC [4]: 5 and 9 | MIC ([4]; H. influenzae IHMA N° 1227715): > 32 µg/mL | MIC ([4]; H. influenzae IHMA N° 1241620): > 32 µg/mL | MIC ([4]; H. influenzae IHMA N° 1244149): 32 µg/mL (≈ 22.1 µM) | MIC ([4]; H. influenzae IHMA N° 1249803): > 32 µg/mL | MIC ([4]; H. influenzae IHMA N° 1254355): 32 µg/mL (≈ 22.1 µM) | MIC ([4]; H. influenzae IHMA N° 1258580): > 32 µg/mL | MIC ([4]; H. influenzae IHMA N° 1262734): 32 µg/mL (≈ 22.1 µM) | MIC ([4]; H. influenzae IHMA N° 1272723): > 32 µg/mL | MIC ([4]; H. influenzae IHMA N° 1286846): > 32 µg/mL | MIC ([4]; H. influenzae IHMA N° 1337530): > 32 µg/mL | MIC ([4]; H. influenzae IHMA N° 1440085): > 32 µg/mL | MIC ([4]; H. influenzae IHMA N° 1479509): 32 µg/mL (≈ 22.1 µM) | MIC ([4]; H. influenzae IHMA N° 1952952): > 32 µg/mL | MIC ([4]; H. influenzae IHMA N° 2047461): 32 µg/mL (≈ 22.1 µM) | MIC, CLSI Range (S. pneumoniae ATCC 49619 [5]): 0,12 - 0,5 µg/mL | MIC (P. aeruginosa ATCC 27853; Pseudomonas aeruginosa, ATCC27853): > 32 µg/mL | MIC (P. aeruginosa ATCC 27853; QC strain P. aeruginosa ATCC 27853, test date 2021-11-26): >32 µg/mL

CO[C@@H]1[C@@H](OC(N)=O)[C@@H](O)[C@H](Oc2ccc3c(O)c(NC(=O)c4ccc(O)c(CC=C(C)C)c4)c(=O)oc3c2C)OC1(C)C [novobiocin]
IC50 (A. baumannii DNA gyrase): 2.17 ± 0.16 nM | MIC [6]: 0.0312 µg/mL | MIC [7]: 0.125 µg/mL
